Key:
[1] = Caco-2 cell permeability assay (A-B and B-A); type: in vitro ADME; conditions: human; for Papp A→B at 60 min, 10 μM: A-B direction; for Papp B→A at 40 min, 10 μM: B-A direction
In short: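 Caco-2 monolayers were used 21-25 days post-seeding, with compound at 10 μM (1% DMSO) in HBSS-MES pH 6.5 or HBSS-HEPES pH 7.4 on the donor side. Incubation was at 37° C with shaking for 60 min (A−B) or 40 min (B−A). Donor and receiver samples were quantified by HPLC-MS/MS, and Papp and recovery were calculated.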

[2] = Metabolic stability in dog hepatocytes; type: in vitro ADME; conditions: pooled cryopreserved hepatocytes; beagle dog hepatocytes, 2 μM compound, 500,000 cells/mL, 37° C.; read-out: Dog Hepatocyte Stability (T½: min)
Protocol: The following procedure was used to determine the stability of test compounds in beagle dog hepatocytes in a 96-well plate format. The test compounds, including the controls, imipramine and 7-ethoxycoumarin, were dissolved at 10 mM in DMSO, followed by further 5-fold dilution with DMSO to 2 mM. Pooled cryopreserved beagle dog hepatocytes were thawed and transferred into complete medium. Cells were gently centrifuged (700 rpm for 5 min) and the pellet rinsed with KHB (Krebs Henseleit buffer). Cells were resuspended, counted using Trypan blue, and adjusted to 1 million cells/mL in KHB buffer. The 2 mM compound stock solutions were diluted 10-fold with acetonitrile, followed by a further 50-fold dilution with KHB buffer. 200 μL of these compound solutions were transferred to 96-well polypropylene assay plates and an equal volume of the hepatocyte solution was added and mixed to initiate the reaction (final assay concentrations were 2 μM compound and 500,000 cells/mL). Assay plates were incubated at 37° C. in 5% CO2 with gentle agitation. 50 μL aliquots were removed at multiple time points out to 180 minutes and quenched with 6 volumes of cold acetonitrile (containing 250 ng/mL of carbutamide and chrysin as internal standards) to terminate the reaction and precipitate protein. Quenched samples were maintained on ice. The quenched samples were centrifuged at 2000×g (3100 rpm) for 10 minutes at 4° C. 50 μL aliquots of the supernatants were removed and diluted with 100 μL Milli-Q water to reduce the % organic content prior to bioanalysis by LC-MS/MS. Peak areas corresponding to the test compound were recorded. The compound remaining was calculated by comparing the peak area at each time point to time zero. Data were analyzed and results were calculated using Microsoft Excel 2010.

[3] = biological target: T1, Thrombin (Homo sapiens, UniProt P00734); assay: Dose response assay for protease inhibitors: thrombin; type: biochemical; conditions: ratio versus Factor XIa
T1 construct: Thrombin; 0.2 μM in 50% glycerol (7.34 μg/mL)

SMILES | Papp A→B at 60 min, 10 μM [1] [×10⁻⁶ cm/s] | Papp B→A at 40 min, 10 μM [1] [×10⁻⁶ cm/s] | half-life at 2 μM [2] [h] | Ratio: Thrombin/FXIa [3]
CC[C@@H](NC(=O)N1C(=O)[C@H](Cc2cc(C)nc(N)c2)[C@H]1C(=O)N(C)c1ccccc1)c1cccc(Cl)c1 [Compound 120] | 11 to 30 | ≤ 10 | 2.02 to 4 | H (“H” indicates 101-1000)
CC[C@@H](NC(=O)N1C(=O)[C@H](Cc2ccnc(N)c2)[C@H]1C(=O)N(C)c1ncccn1)c1cccc(Cl)c1 [Compound 121] | 11 to 30 | 11 to 30 | < 1 | H (“H” indicates 101-1000)
CC[C@@H](NC(=O)N1C(=O)[C@H](Cc2ccnc(NC(=O)OC(C)(C)C)c2)[C@H]1C(=O)N(C)c1ccncc1)c1cccc(Cl)c1 [Compound 127] | 11 to 30 | ≤ 10 | < 1 | H (“H” indicates 101-1000)

— US20190315711A1 (eXIthera Pharmaceuticals, Inc., priority 2016, published 2019)
